Our source for the MIC values is ChEMBL document CHEMBL4422644, “Synthesis and evaluation of α-aminoacyl amides as antitubercular agents effective on drug resistant tuberculosis” (Eur J Med Chem, 2019).

Each structure is given as a SMILES string. Converted amounts (≈) assume the structure as drawn.

Assay type in all cases: functional
In assay [1] the test system is Mycobacterium tuberculosis. Kind of assay: Antitubercular activity against isoniazid/ethionamide resistant Mycobacterium tuberculosis isolate 1 after 7 days. To be noted: isolate 1, 168 h.
Assay [2] relates to Mycobacterium tuberculosis. Put plainly: Antitubercular activity against isoniazid/ethionamide resistant Mycobacterium tuberculosis isolate 2 after 7 days. The settings on record: isolate 2, 168 h.
The test system of assay [3] is Mycobacterium tuberculosis. Kind of assay: Antitubercular activity against multidrug-resistant Mycobacterium tuberculosis isolate 3 after 7 days. To be noted: isolate 3, 168 h.
For assay [4], the system named is Mycobacterium tuberculosis. Put plainly: Antitubercular activity against multidrug-resistant Mycobacterium tuberculosis isolate 4 after 7 days. The settings on record: isolate 4, 168 h.
The subject of assay [5] is Mycobacterium tuberculosis. Kind of assay: Antitubercular activity against isoniazid/rifampicin resistant Mycobacterium tuberculosis isolate 5 after 7 days. The settings on record: isolate 5, 168 h.
The subject of assay [6] is Mycobacterium tuberculosis. Kind of assay: Antitubercular activity against multidrug-resistant Mycobacterium tuberculosis isolate 6 after 7 days. To be noted: isolate 6, 168 h.
The test system of assay [7] is Mycobacterium tuberculosis. Kind of assay: Antitubercular activity against multidrug-resistant Mycobacterium tuberculosis isolate 7 after 7 days. To be noted: isolate 7, 168 h.
The subject of assay [8] is Mycobacterium tuberculosis. Kind of assay: Antitubercular activity against multidrug-resistant Mycobacterium tuberculosis isolate 8 after 7 days. The settings on record: isolate 8, 168 h.

Regarding `Cc1nc(C)c(C(=O)N(c2cccc(C)c2C)C(C(=O)NC2CCCCC2)c2cccnc2)s1` (stereo not drawn), the MIC in assay [1] was found to be 4 µg/mL (≈ 8.39 µM); in assay [2], 1 µg/mL (≈ 2.1 µM); in assay [3] it was 1 µg/mL (≈ 2.1 µM); in assay [4], 2 µg/mL (≈ 4.2 µM); in assay [5] it was 2 µg/mL (≈ 4.2 µM); in assay [6] it was 8 µg/mL (≈ 16.8 µM). The MIC stood at 2 µg/mL (≈ 4.2 µM) in assay [7] and 8 µg/mL (≈ 16.8 µM) in assay [8].
On to `CC[C@@H](CO)NCCN[C@@H](CC)CO` [ETHAMBUTOL], for which the MIC was found to be 2 µg/mL (≈ 9.79 µM) in assay [1]; 4 µg/mL (≈ 19.6 µM) in assay [2]; 4 µg/mL (≈ 19.6 µM) in assay [3]; 8 µg/mL (≈ 39.2 µM) in assay [4]; 4 µg/mL (≈ 19.6 µM) in assay [6]; 8 µg/mL (≈ 39.2 µM) in assay [7]. Also, the MIC in assay [8] is greater than 8 µg/mL.
For `NNC(=O)c1ccncc1` [ISONIAZID], the MIC is 5 µg/mL (≈ 36.5 µM) in assay [1]; greater than 0.2 µg/mL in assay [2]; greater than 0.2 µg/mL in assay [3]; greater than 5 µg/mL in assay [4]; 5 µg/mL (≈ 36.5 µM) in assay [5]; greater than 5 µg/mL in assay [6]. Also, the MIC in assay [7] and in assay [8] was 5 µg/mL (≈ 36.5 µM) throughout.
For `NC[C@H]1O[C@H](O[C@H]2[C@H](O)[C@@H](O[C@H]3O[C@H](CO)[C@@H](O)[C@H](N)[C@H]3O)[C@H](N)C[C@@H]2N)[C@H](O)[C@@H](O)[C@@H]1O` [KANAMYCIN], the minimal inhibitory concentration (MIC) came to 16 µg/mL (≈ 33 µM) in assay [1]; 32 µg/mL (≈ 66 µM) in assay [2]; 32 µg/mL (≈ 66 µM) in assay [3]; 8 µg/mL (≈ 16.5 µM) in assay [4]; 8 µg/mL (≈ 16.5 µM) in assay [6]; 8 µg/mL (≈ 16.5 µM) in assay [7]. In assay [8], this compound came in with an MIC of 16 µg/mL (≈ 33 µM).
Consider `CO[C@H]1/C=C/O[C@@]2(C)Oc3c(C)c(O)c4c(O)c(c(/C=N/N5CCN(C)CC5)c(O)c4c3C2=O)NC(=O)/C(C)=C\C=C\[C@H](C)[C@H](O)[C@@H](C)[C@@H](O)[C@@H](C)[C@H](OC(C)=O)[C@@H]1C` [RIFAMPIN], for which the MIC in assay [1] was found to be 32 µg/mL (≈ 38.9 µM); in assay [2], 4 µg/mL (≈ 4.86 µM); in assay [3], 64 µg/mL (≈ 77.8 µM); in assay [4] it was 32 µg/mL (≈ 38.9 µM); in assay [5], 128 µg/mL (≈ 156 µM); in assay [6] it was 128 µg/mL (≈ 156 µM). Moreover, the MIC in assay [7] and in assay [8] was greater than 128 µg/mL each time.
